SMILES strings stand for the structures.

Acrosin, sequence (P10323 20-42 limits assumed): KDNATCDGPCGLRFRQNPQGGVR
Acrosin, sequence (P10323 43-343 limits assumed): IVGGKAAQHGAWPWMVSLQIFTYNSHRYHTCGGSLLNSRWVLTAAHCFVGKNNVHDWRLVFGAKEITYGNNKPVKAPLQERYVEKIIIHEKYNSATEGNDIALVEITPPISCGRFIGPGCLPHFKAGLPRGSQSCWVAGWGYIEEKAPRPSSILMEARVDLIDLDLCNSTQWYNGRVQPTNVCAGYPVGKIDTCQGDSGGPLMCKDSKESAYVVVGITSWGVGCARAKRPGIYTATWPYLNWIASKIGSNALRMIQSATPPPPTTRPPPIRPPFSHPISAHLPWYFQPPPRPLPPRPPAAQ

The assay has as its target Acrosin (Homo sapiens, UniProt P10323). Put plainly: Inhibition of acrosin activity in human spermatozoa using N-alpha-benzoyl-DL-arginine para-nitroanilide-HCI as a substrate after 3 hrs by spectrophotometric analysis.
As usually defined, the IC50 is the point on the concentration scale where inhibition reaches its midpoint. Read a low IC50 as inhibition by little substance. In the case of `COc1ccc(C(=O)Nc2ccc(S(=O)(=O)N=C(N)N)cc2)cc1`, the IC50 turned out to be 2.21 µmol/mL.

`Cc1ccc(C(=O)Nc2ccc(S(=O)(=O)N=C(N)N)cc2)cc1` showed an IC50 of 2.06 µmol/mL.

In the case of `NC(N)=NS(=O)(=O)c1ccc(NC(=O)c2ccccc2Cl)cc1`, the half-maximal inhibitory concentration (IC50) worked out at 6.3 µmol/mL.

Turning to `NC(N)=NS(=O)(=O)c1ccc(NC(=O)c2cccc(Cl)c2)cc1`, the IC50 was 7 µmol/mL.

`NC(N)=NS(=O)(=O)c1ccc(NC(=O)c2ccc(Cl)cc2Cl)cc1` registered an IC50 of 5.63 µmol/mL.

On to `NC(N)=NS(=O)(=O)c1ccc(NC(=O)c2c(Cl)cccc2Cl)cc1`, for which the IC50 came out at 5.96 µmol/mL.

In the case of `NC(N)=NS(=O)(=O)c1ccc(NC(=O)c2ccc(Cl)c(Cl)c2)cc1`, the half-maximal inhibitory concentration (IC50) was 3.8 µmol/mL.

In turn, `NC(N)=NS(=O)(=O)c1ccc(NC(=O)c2ccccc2Br)cc1` yielded a half-inhibitory concentration (IC50) of 7.63 µmol/mL.

In the case of `NC(N)=NS(=O)(=O)c1ccc(NC(=O)c2ccc(F)cc2)cc1`, the 50% inhibitory concentration (IC50) stood at 7.11 µmol/mL.

With `NC(N)=NS(=O)(=O)c1ccc(NC(=O)c2c(F)cccc2F)cc1`, the IC50 came to 7.18 µmol/mL.

`NC(N)=NS(=O)(=O)c1ccc(NC(=O)c2ccc(CCl)cc2)cc1`: the half-maximal inhibitory concentration (IC50) was 3.84 µmol/mL.

As for `Cc1cc(C)c(C(=O)Nc2ccc(S(=O)(=O)N=C(N)N)cc2)c(C)c1`, the IC50 was 2.45 µmol/mL.

With `NC(N)=NS(=O)(=O)c1ccc(NC(=O)c2cccc(C(F)(F)F)c2)cc1`, the concentration for half-maximal inhibition (IC50) is 7.05 µmol/mL.

`NC(N)=NS(=O)(=O)c1ccc(NC(=O)c2cc([N+](=O)[O-])cc([N+](=O)[O-])c2)cc1` returned an IC50 of 2.5 µmol/mL.

As for `CCc1ccc(C(=O)Nc2ccc(S(=O)(=O)N=C(N)N)cc2)cc1`, the IC50 is 0.21 µmol/mL.

`CCOc1ccc(C(=O)Nc2ccc(S(=O)(=O)N=C(N)N)cc2)cc1` came in with a 50% inhibitory concentration (IC50) of 0.13 µmol/mL.

Turning to `CCC(=O)Nc1ccc(S(=O)(=O)N=C(N)N)cc1`, the 50% inhibitory concentration (IC50) was found to be 9 µmol/mL.

In turn, `CCCC(=O)Nc1ccc(S(=O)(=O)N=C(N)N)cc1` had an IC50 of 9.58 µmol/mL.

Compound `CCCCC(=O)Nc1ccc(S(=O)(=O)N=C(N)N)cc1` yielded a concentration for half-maximal inhibition (IC50) of 1.58 µmol/mL.

With `NC(N)=NS(=O)(=O)c1ccc(NC(=O)CN2CCCCC2)cc1`, the half-inhibitory concentration (IC50) stood at 7.41 µmol/mL.

The compound `CC1CCCCN1CC(=O)Nc1ccc(S(=O)(=O)N=C(N)N)cc1` (stereo unspecified) came in with an IC50 of 9.9 µmol/mL.

Compound `CC1CCN(CC(=O)Nc2ccc(S(=O)(=O)N=C(N)N)cc2)CC1` returned a 50% inhibitory concentration (IC50) of 4.98 µmol/mL.

On to `COC(=O)C1CCN(CC(=O)Nc2ccc(S(=O)(=O)N=C(N)N)cc2)CC1`, for which the IC50 came out at 9.3 µmol/mL.

In turn, `CCOC(=O)C1CCN(CC(=O)Nc2ccc(S(=O)(=O)N=C(N)N)cc2)CC1` registered a half-maximal inhibitory concentration (IC50) of 2.99 µmol/mL.

`CCCOC(=O)C1CCN(CC(=O)Nc2ccc(S(=O)(=O)N=C(N)N)cc2)CC1` came in with an IC50 of 3.31 µmol/mL.

In the case of `CC(C)OC(=O)C1CCN(CC(=O)Nc2ccc(S(=O)(=O)N=C(N)N)cc2)CC1`, the IC50 was determined as 2.35 µmol/mL.

On to `CCCCOC(=O)C1CCN(CC(=O)Nc2ccc(S(=O)(=O)N=C(N)N)cc2)CC1`, for which the half-maximal inhibitory concentration (IC50) came to 9.5 µmol/mL.

In turn, `CC(C)CCOC(=O)C1CCN(CC(=O)Nc2ccc(S(=O)(=O)N=C(N)N)cc2)CC1` gave a half-maximal inhibitory concentration (IC50) of 2.51 µmol/mL.

`NC(N)=NS(=O)(=O)c1ccc(NC(=O)COc2ccccc2)cc1` displayed an IC50 of 2.3 µmol/mL.

`Cc1ccccc1OCC(=O)Nc1ccc(S(=O)(=O)N=C(N)N)cc1` registered a concentration for half-maximal inhibition (IC50) of 9.3 µmol/mL.

In turn, `Cc1cccc(OCC(=O)Nc2ccc(S(=O)(=O)N=C(N)N)cc2)c1` had a 50% inhibitory concentration (IC50) of 8.92 µmol/mL.

Turning to `Cc1ccc(OCC(=O)Nc2ccc(S(=O)(=O)N=C(N)N)cc2)cc1`, the 50% inhibitory concentration (IC50) was determined as 8.98 µmol/mL.

`NC(N)=NS(=O)(=O)c1ccc(NC(=O)COc2ccc(Cl)cc2)cc1` registered an IC50 of 9.35 µmol/mL.

`COc1ccc(OCC(=O)Nc2ccc(S(=O)(=O)N=C(N)N)cc2)cc1` came in with a half-maximal inhibitory concentration (IC50) of 9.84 µmol/mL.

In the case of `NC(N)=NS(=O)(=O)c1ccc(NC(=O)COc2ccc([N+](=O)[O-])cc2)cc1`, the IC50 stood at 4.2 µmol/mL.

`COC(=O)c1ccc(OC(=O)c2ccc(NC(=N)N)cc2)cc1.CS(=O)(=O)O` had a half-maximal inhibitory concentration (IC50) of 0.027 µmol/mL.

Values taken from ChEMBL document CHEMBL1909542, “Synthesis and acrosin inhibitory activity of substituted 4-amino-N-(diaminomethylene) benzenesulfonamide derivatives” (Bioorg Med Chem Lett, 2011).
